Laboratory results reported in US9134300B2, “Method for screening a drug in retinal tissue” (Research Foundation of the City University of New York, priority 2011, dated 2015).

Test system: microtubules
Experiment: Time-lapse second-harmonic generation imaging of retinal nerve fibers following treatment with nocodazole
Design: species or system rat
Details: retinal nerve fiber layer of retinal flat-mount; perfusion with medium containing nocodazole and 0.4% DMSO; treatment period 90 minutes
Description: Rat retinal flat-mounts were prepared from euthanized rats. The eyes were enucleated. A circumferential incision was made around the limbus and the cornea, lens, and vitreous humor were removed. Several radial cuts were made in the eye cup. The retina was isolated from the retinal pigment epithelium and the sclera and transferred to buffered Ames' medium (Sigma-Aldrich), which was bubbled with 95% oxygen and 5% carbon dioxide, and maintained at 34° C. and pH 7.4. The sample was transferred to a perfusion chamber with a transparent bottom (Warner Instruments) within 15 minutes after euthanasia. The retina was placed on the microscope stage with the retinal nerve fiber layer side up. The speed of laminar flow was approximate 1 mL per min.
Imaging: Simultaneous second-harmonic generation microscopy and two-photon excitation fluorescence microscopy were performed to image the fresh retina. The excitation wavelength utilized short pulses from a mode-locked Ti: Sapphire laser source with a duration of 100 fs at 80-MHz repetition rate. The excitation wavelength was 785 nm, except for the experiments where two excitation wavelengths at 785 and 880 nm are compared. […]
Fluorescence was detected in the backward beam path, which included a set of spectral filters (Chroma Technology), and photomultiplier tube (PMT) detectors (Hamamatsu). […]

SMILES: COC(=O)Nc1nc2ccc(C(=O)c3cccs3)cc2[nH]1 [nocodazole]
- intensity of microtubule second-harmonic generation signal: significantly reduced
